Measured values from US20120178695A1, “METHODS OF TREATING NEUROPATHIC PAIN” (priority 2009, published 2012).
Peptide text beside a SMILES is read from it.

Experiments:
[1] = tested on: rat formalin model of tonic pain; experiment: rat formalin model of tonic pain; type: in vivo; conditions: for antinociceptive efficacy (percentage analgesia, late phase response): subcutaneous before formalin, second phase 10-40 min after formalin
Procedure: FIG. 1 depicts the antinociceptive actions of GLYX-13 and gabapentin in the rat formalin model of tonic pain. Percentage analgesia is the percentage reduction (on the basis of the area under the curve for vehicle+formalin) in flinches in the late phase response (10-40 min) after intraplantar formalin injection ([…] of 5% formalin) compared with control values arbitrarily set at 100%. Drugs were administered subcutaneously, 15 min before formalin. N=8-10 per group. Mean±SEM.
Antinociceptive actions of GLYX-13 were conducted in a rat formalin assay. Male Sprague-Dawley rats (125-170 g) were manually restrained for a subcutaneous injection of 1.5% formalin ([…] with a 26 ga needle) into the lateral footpad on the plantar surface of the left hind paw. After formalin injections, rats were placed in individual clear plastic cylinders of 30 cm diameter. Drug effects on the second phase of the pain response were monitored with observations conducted over the period between 10 and 40 min after formalin injection. Each group was composed of 10 animals. Vehicle, GLYX-13, or gabapentin was administered subcutaneously at the nape of the neck 10 min before the formalin injection. The time spent licking or elevating the injected limb was quantitated over this […] observation period.

[2] = tested on: chronic constriction nerve injury model of neuropathic pain; experiment: chronic constriction nerve injury model of neuropathic pain (Example 1); type: in vivo, rat; conditions: 5 mg/kg intravenously; 15 and 60 minutes after dosing
Procedure: Next, GLYX-13 was evaluated in the chronic constriction nerve injury model of neuropathic pain; 5 mg/kg GLYX-13. Male Sprague-Dawley rats (200-225 g) were anesthetized with sodium pentobarbitone (6 mg/kg, intraperitoneally) and supplemented as necessary with isoflurane (1-3% in oxygen). Under asceptic conditions, the right sciatic nerve was exposed by blunt dissection at the mid thigh level and 1 cm freed of adhering connective tissue. Four chromic catgut (4.0) ligatures were tied to lightly constrict the nerve at 1 mm intervals. The overlying muscle and skin were sutured and, upon recovery from anesthesia, the rats returned to cages of soft padded bedding and to cages with sawdust bedding after 24 h. At days 5, 7, 9, and 11 post recovery, mechanical […] was assessed with Von Frey filaments (calibration numbers, 3.61-6.10) applied to the plantar surface of the hind paw from below. The filaments were evaluated in ascending order with the threshold for both the ipsilateral and contralateral paws being evaluated. The withdrawal threshold was defined as the lowest force of two or more consecutive Von Frey filaments to elicit a withdrawal reflex. […]
The antinociceptive actions of vehicle or GLYX-13 (5 mg/kg) were evaluated at 15 and 60 minutes after dosing. […]

[3] = ataxia on rotor-rod apparatus; type: in vivo; conditions: 30 min after 5, 50, or 500 mg/kg intravenous administration
[4] = blood-brain barrier crossing
[5] = tested on: acetic-acid induced writhing model in mice; experiment: acetic-acid induced writhing model in mice; type: in vivo, mouse; conditions: male mice; 1, 5, and 10 mg/kg i.v., 5 min before i.p. 0.5% acetic acid
Procedure: GLYX-13 was tested for antinociceptive activity in an acetic-acid induced writhing model in mice. Groups of 10 male mice were dosed i.v. with either saline or GLYX-13 at 1, 5, or 10 mg/kg. Five minutes later, each mouse was injected i.p. with a solution of 0.5% acetic acid in 0.9% saline and observed for writhing behavior for five minutes. The total number of writhes for each mouse was recorded and the mean number of writhes was compared between the control and GLYX-13 treated groups.

[6] = tested on: radiant heat tail flick response; experiment: radiant heat tail flick study in rats; type: in vivo, rat; conditions: male rats; 1, 5, and 10 mg/kg i.v., five minutes after administration
Procedure: The ability of GLYX-13 to block the radiant heat tail flick response was determined in male rats. Groups of 10 male rats were administered either saline or GLYX-13 at 1, 5, or 10 mg/kg via i.v. injection, and five minutes following administration, the tail of each rat was exposed to a radiant heat stimulus. The time to elicit a characteristic tail flick was determined for each rat and the mean response time was determined for each group.

[7] = tested on: Randall-Selitto paw pressure model; experiment: Randall-Selitto paw pressure model in rats; type: in vivo, rat
Procedure: The purpose of this study was to assess the potential effect of GLYX-13 upon the pain threshold in rats using the Randall-Selitto paw pressure model. Groups of 10 male rats (20 for saline vehicle control) were injected with a 20% suspension of yeast in the right hind paw and two hours later, each rat was intravenously administered either saline or GLYX-13 at 1, 5, or 10 mg/kg. The response to mechanical pain stimulus was determined for both the inflamed and non-inflamed paw using an analgesia meter. The amount of force required to elicit paw withdrawal was measured for each rat.

[8] = tested on: rat model of peripheral neuropathy; experiment: rat model of peripheral neuropathy, mechanical allodynia (Example 5); type: in vivo; conditions: for group mean withdrawal threshold, nerve-injured paw: approximately 60 min post-dose
Procedure: FIG. 2 depicts the result of groups of eight male rats subjected to chronic constriction injury to the right hind limb. Following development of peripheral neuropathy, rats were administered GLYX-13, i.v. at 5, 10 or 20 mg/kg on days 12 and 13 post-operative (PO). Rats were tested for mechanical allodynia at 15 and 60 minutes post-dose on day 13 PO. The data represent mechanical allodynia readings at 15 minutes post-dose.
The ability of GLYX-13 to attenuate neuropathic pain was assessed in a rat model of peripheral neuropathy. In this study, four groups of eight male rats were subjected to surgically-induced peripheral neuropathy. Peripheral neuropathy was induced in the right hind limb of male rats by loose ligation of the right sciatic nerve according to the method of Bennett and Xie (Bennett and Xie, 1988). After 8-10 days, a peripheral neuropathy had developed in the right hind limbs as determined by sensitivity to both mechanical allodynia and thermal hyperalgesia. This pilot study consisted of four groups of eight male rats. Days 12-13 post surgery, vehicle (0.9% saline) or GLYX-13 at 5, 10, and 20 mg/kg were administered, and rats were tested for sensitivity to both the thermal stimulus and mechanical allodynia. […] The results for GLYX-13 15 minutes post dose in this rodent neuropathy model are shown FIG. 2.

[9] = tested on: rodent peripheral neuropathy model; experiment: second peripheral neuropathy study, mechanical allodynia (Example 6); type: in vivo, rat; conditions: 5 mg/kg i.v.
Procedure: FIG. 3 depicts the results of groups of 12 male rats subjected to chronic constriction injury to the right hind limb. Following development of peripheral neuropathy, rats were 5 administered GLYX-13, i.v. at 5, 10 or 20 mg/kg on days 12 and 13 post-operative (PO). Rats were tested for mechanical allodynia at 15 and 60 minutes post-dose on day 13 PO. The data represent mechanical allodynia readings at 60 minutes post-dose.
A second peripheral neuropathy study was performed with GLYX-13 in male Sprague- Dawley rats. A peripheral mononeuropathy was induced in the right hind limb and rats were tested for development of mechanical allodynia. Rats that had positively developed neuropathy were administered vehicle (0.9% saline) or GLYX-13 i.v. at doses of 5, 10, or 20 mg/kg on days 12 and 13 PO. Testing for mechanical allodynia was performed at 15 and 60 minutes post-dose. […] In this rodent peripheral neuropathy model, i.v. administration of5 mg/kg GLYX-13 to male rats caused a significant reduction in the sensitivity of the nerve injured hind paw to mechanical allodynia at both 15 and 60 minutes post dose. There was no evidence of any systemic or contralateral effects in this study.

[10] = tested on: intraplantar formalin pain, late phase; experiment: formalin test 8 days after a single dose (Example 7); type: in vivo, rat; conditions: 1 dose 3 mg/kg i.v. 8 days before intraplantar formalin (1.5%)
Procedure: FIG. 4 depicts mean±SEM percent analgesia in the late phase (30-50 min) in 3 month old Sprague-Dawley rats pretreated with GLYX-13 (3 mg/kg i.v.), ketamine (10 mg/kg i.v.) or saline vehicle injection (1 mg/ml i.v. tail vein) in freely behaving rats 8 days before left rear paw intraplantar injections (50 μl) of formalin (1.5%). Analgesia is % reduction in licking time, number of flinches, or total pain score (favoring+2×foot up+3×licking time). […] N=10-11 per group. * P<0.05 Fisher PLSD post hoc drug vs. all other groups.
Freely behaving 3 month old Sprague Dawley rats were pretreated with GLYX -13 (3 mg/kg i.v.), ketamine (10 mg/kg i.v.) or saline vehicle injection (1 mg/ml i.v. tail vein) 8 days before left rear paw intraplantar injections (50 μl) of formalin (1.5%).

NCC1(CC(=O)O)CCCCC1 [gabapentin, reference compound]
antinociceptive efficacy (percentage analgesia, late phase response) [1]: dose-dependent efficacy | ataxia ([1]; subcutaneous, doses of the formalin study (data not shown)): ataxic at the highest dose

C[C@@H](O)[C@H](N)C(=O)N1CCC[C@H]1C(=O)N1CCC[C@H]1C(=O)N[C@H](C(N)=O)[C@@H](C)O [GLYX-13, L-threonyl-L-prolyl-L-prolyl-L-threonine amide] (H-TPPT-NH2)
ataxia ([1]; rat, in vivo, sc): not ataxic at any of the doses examined | antinociceptive efficacy (percentage analgesia, late phase response) [1]: dose-dependent efficacy | antinociceptive action (mechanical allodynia) [2]: antinociceptive at both time points | ataxia [2]: no evidence of ataxia | ataxia, rotor-rod apparatus [3]: not found to induce ataxia | crossing of the blood-brain barrier [4]: readily crosses the blood-brain barrier in an active form | acetic acid induced writhing behavior [5]: did not block acetic acid induced writhing behavior | response time to a radiant heat stimulus (tail flick) [6]: did not result in a change in the response time | pain threshold (force to elicit paw withdrawal) ([7]; male rats, yeast-inflamed paw, 1, 5, or 10 mg/kg i.v.): no significant effect on the pain threshold | pain threshold (force to elicit paw withdrawal) ([7]; rats dosed with 5 and 10 mg/kg i.v.): Slight, but not statistically significant, increases in the pain threshold | withdrawal threshold, nerve-injured paw ([8]; 10 mg/kg i.v., 15 minutes post dose): 5.98 ± 2.25 g | withdrawal threshold, nerve-injured paw ([8]; 10 mg/kg i.v., 60 minutes post dose): 7.26 ± 2.19 g | responses of the uninjured (contralateral) hind paw ([8]; 5, 10, and 20 mg/kg, any of the time points tested): No marked changes | withdrawal threshold, nerve-injured paw ([8]; doses of 5 and 20 mg/kg): small but distinct increases in withdrawal threshold | group mean withdrawal threshold, nerve-injured paw ([8]; high dose (20 mg/kg i.v.)): 2.08 ± 1.21 g | group mean withdrawal threshold, nerve-injured paw ([8]; low dose group (5 mg/kg i.v.)): 5.04 ± 3.09 g | withdrawal threshold in the nerve injured hind paw to mechanical allodynia ([8]; male rats, 5, 10, and 20 mg/kg): marked increase in the withdrawal threshold | contralateral effects [9]: no evidence of any contralateral effects | sensitivity of the nerve-injured paw to mechanical stimuli (Von Frey filaments) ([9]; free-base, approximately 15 and 60 min post dose): statistically significant reduction in the sensitivity | analgesia in the late phase (30-50 min) of the formalin test [10]: increased analgesia 8 days after administration
